Test results: patent publication US20250302768A1, “NANOPARTICLE DOPED POLYETHYLENE GLYCOL BASED GELS AND MEDICAL DEVICES FOR DRUG DELIVERY” (priority 2022, published 2025)

Legend:
[1] = drug elution from cured MAPLAPEG gel strips in phosphate buffered saline; format: physicochemical; conditions: eluted from MAPLAPEG polymers; 250 mg gel strip in 5 ml phosphate buffered saline; sampled 0.25 to 28 days; n=4
Method: Methacrylated poly(lactic acid-co-ethylene glycol) (MAPLAPEG) macromers were synthesized with microwave synthesis with a lactate degree of polymerization (DP) of 4 and PEG400 (DP 9.5). Chitosan nanoparticles (CNP) were synthesized using ionic gelation and ketorolac tromethamine was loaded into the CNPs. For polymerization, the MAPLAPEG macromers were mixed with 10 mg/mL Phenylbis(2,4,6-trimethylbenzoyl) phosphine oxide initiator at a ratio of 1 μL each 20 μL of macromer and exposed to UV radiation at 395 nm for two minutes to form a 250 mg gel strip with the dimensions of 5 mm×3 mm×20 mm. The test groups were formed as follows: (1) gel and antibiotic; (2) gel loaded with antibiotic and CNPs; (3) gel loaded with antibiotic and (4) gel and ketorolac loaded CNPs. Gels loaded with only ketorolac loaded CNPs were used as controls for ketorolac elution. […] Eluent concentrations were measured using UV visible spectrometry. Gentamicin sulfate samples were treated with O-phthalaldehyde and the fluorescence was measured after complexation.
FIGS. 1A-1C depict the release rates of vancomycin, gentamicin and ketorolac from the gels loaded only with antibiotics and those loaded also with particles and those loaded with particles containing ketorolac. […] The sample size for each group was four and standard deviation was calculated for each sample group.

[2] = tested on: Staphylococcus aureus; conditions: reference values the eluted concentrations are compared with; cited from earlier work

Compound | time eluted concentration maintained above the MIC [1] | minimum inhibitory concentration (MIC) [2]
gentamicin | 4 weeks | 1.5 to 3 µg/mL
CN[C@H](CC(C)C)C(=O)N[C@H]1C(=O)N[C@@H](CC(N)=O)C(=O)N[C@H]2C(=O)N[C@H]3C(=O)N[C@H](C(=O)N[C@H](C(=O)O)c4cc(O)cc(O)c4-c4cc3ccc4O)[C@H](O)c3ccc(c(Cl)c3)Oc3cc2cc(c3O[C@@H]2O[C@H](CO)[C@@H](O)[C@H](O)[C@H]2O[C@H]2C[C@](C)(N)[C@H](O)[C@H](C)O2)Oc2ccc(cc2Cl)[C@H]1O [Vancomycin, vancomycin] | 4 weeks | 0.5 to 2 µg/mL
